Source: ChEMBL document CHEMBL1151966, “Okundoperoxide, a bicyclic cyclofarnesylsesquiterpene endoperoxide from Scleria striatinux with antiplasmodial activity” (J Nat Prod, 2009)
Values after ≈ are worked out from the molar mass of the structure shown.

Assays:
[1] = test system: Plasmodium falciparum; experiment: Antiplasmodial activity after 24 hrs against chloroquine-resistant Plasmodium falciparum W2 infected human erythrocytes by [3H]hypoxanthine uptake; type: functional, organism-based
[2] = test system: Plasmodium falciparum; experiment: Antiplasmodial activity after 24 hrs against chloroquine,pyrimethamine-resistant Plasmodium falciparum K1 infected human erythrocytes by [3H]hypoxanthine uptake; type: functional, organism-based
[3] = test system: Plasmodium falciparum; experiment: Antiplasmodial activity after 24 hrs against chloroquine-sensitive Plasmodium falciparum D6 infected human erythrocytes by [3H]hypoxanthine uptake; type: functional, organism-based
[4] = test system: Plasmodium falciparum; experiment: Antiplasmodial activity after 24 hrs against drug-sensitive Plasmodium falciparum NF54 infected human erythrocytes by [3H]hypoxanthine uptake; type: functional, organism-based
[5] = Cytotoxicity against human erythrocytes; type: cell-based; details: Erythrocyte

C/C(=C\CO)[C@H]1C[C@H]2C(C)(C)C(=O)C=C[C@]2(C)OO1 (relative stereo) [OKUNDOPEROXIDE]
IC50 [1]: 0.47 µg/mL (≈ 1.76 µM)
IC50 [2]: 1.5 µg/mL (≈ 5.62 µM)
IC50 [3]: 0.483 µg/mL (≈ 1.81 µM)
IC50 [4]: 1.31 µg/mL (≈ 4.91 µM)
IC50 [5]: 22.7 µg/mL (≈ 85.2 µM)

COc1cc([C@@H]2c3cc4c(cc3[C@H](O)[C@H]3COC(=O)[C@H]23)OCO4)cc(OC)c1OC [PODOFILOX]
IC50 [5]: 0.007 µg/mL (≈ 0.0169 µM)
